Experimental data as given in ChEMBL document CHEMBL1135953, “bis-Azaaromatic quaternary ammonium analogues: ligands for alpha4beta2* and alpha7* subtypes of neuronal nicotinic receptors” (Bioorg Med Chem Lett, 2002).

Assays:
[1] = target: Neuronal acetylcholine receptor subunit alpha-7 (Rattus norvegicus, UniProt Q05941); assay: Binding affinity nicotinic acetylcholine receptor alpha-7 was evaluated by its ability to inhibit [3H]methyllycaconitine ([3H]-MLA) binding to rat brain membranes; parameters: species or system Membrane
Sequence of Neuronal acetylcholine receptor subunit alpha-7 (Q05941 whole entry): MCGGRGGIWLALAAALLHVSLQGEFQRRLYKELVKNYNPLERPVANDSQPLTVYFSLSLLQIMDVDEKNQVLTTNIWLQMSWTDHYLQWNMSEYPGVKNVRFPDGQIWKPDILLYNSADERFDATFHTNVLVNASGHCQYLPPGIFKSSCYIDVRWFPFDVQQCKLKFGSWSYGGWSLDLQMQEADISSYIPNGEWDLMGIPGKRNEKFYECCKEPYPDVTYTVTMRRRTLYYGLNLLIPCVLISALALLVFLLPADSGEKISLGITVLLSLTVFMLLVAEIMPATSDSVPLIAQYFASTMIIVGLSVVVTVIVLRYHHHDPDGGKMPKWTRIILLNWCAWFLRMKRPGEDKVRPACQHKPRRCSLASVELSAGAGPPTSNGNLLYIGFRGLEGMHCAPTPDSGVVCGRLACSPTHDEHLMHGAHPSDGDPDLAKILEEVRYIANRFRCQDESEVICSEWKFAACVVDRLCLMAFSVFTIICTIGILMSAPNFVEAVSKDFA

[2] = target: Neuronal acetylcholine receptor; alpha4/beta2 (Rattus norvegicus, UniProt P09483+P12390); assay: Binding affinity for nicotinic acetylcholine receptor alpha4-beta2 was evaluated by its ability to inhibit [3H]NIC binding to rat brain membranes; parameters: species or system Membrane
Sequence of Neuronal acetylcholine receptor; alpha4/beta2 (P09483 whole entry): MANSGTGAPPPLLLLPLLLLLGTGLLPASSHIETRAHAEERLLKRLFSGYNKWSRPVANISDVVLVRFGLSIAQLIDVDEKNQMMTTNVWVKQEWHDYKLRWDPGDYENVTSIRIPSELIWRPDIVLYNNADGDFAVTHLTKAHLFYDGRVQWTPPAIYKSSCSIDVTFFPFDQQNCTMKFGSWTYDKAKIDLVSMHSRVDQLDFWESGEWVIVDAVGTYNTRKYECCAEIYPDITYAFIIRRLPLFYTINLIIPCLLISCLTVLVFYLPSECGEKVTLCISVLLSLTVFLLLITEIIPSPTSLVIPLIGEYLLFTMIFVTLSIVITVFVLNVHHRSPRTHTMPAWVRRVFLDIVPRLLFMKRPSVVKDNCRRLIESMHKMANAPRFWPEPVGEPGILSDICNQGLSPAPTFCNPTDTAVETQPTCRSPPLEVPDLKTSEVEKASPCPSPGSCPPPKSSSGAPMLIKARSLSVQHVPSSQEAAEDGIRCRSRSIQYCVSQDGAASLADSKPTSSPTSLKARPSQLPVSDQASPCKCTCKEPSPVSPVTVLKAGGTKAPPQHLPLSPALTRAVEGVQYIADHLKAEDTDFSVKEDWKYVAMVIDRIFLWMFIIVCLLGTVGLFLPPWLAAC
Sequence of Neuronal acetylcholine receptor; alpha4/beta2 (P12390 whole entry): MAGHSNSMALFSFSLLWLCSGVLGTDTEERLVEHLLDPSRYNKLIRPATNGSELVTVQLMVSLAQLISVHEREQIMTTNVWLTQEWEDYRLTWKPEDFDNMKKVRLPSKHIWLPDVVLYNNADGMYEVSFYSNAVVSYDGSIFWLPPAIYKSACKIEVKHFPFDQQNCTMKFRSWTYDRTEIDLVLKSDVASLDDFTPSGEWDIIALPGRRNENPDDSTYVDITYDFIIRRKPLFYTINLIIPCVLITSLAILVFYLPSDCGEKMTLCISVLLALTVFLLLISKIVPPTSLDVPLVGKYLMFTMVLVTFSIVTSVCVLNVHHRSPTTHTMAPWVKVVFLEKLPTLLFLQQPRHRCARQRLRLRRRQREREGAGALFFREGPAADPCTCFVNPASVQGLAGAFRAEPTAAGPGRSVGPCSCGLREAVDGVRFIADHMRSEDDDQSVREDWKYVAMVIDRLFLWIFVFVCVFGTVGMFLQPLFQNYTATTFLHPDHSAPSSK

Rattus norvegicus = species: Rattus norvegicus; assay: Compound was evaluated for inhibiting NIC-evoked [86Rb+] efflux from rat thalamic synaptosomes; assay type: functional; conditions: Brain

Row | SMILES | Ki [1] | Ki [2] | IC50 (Rattus norvegicus)
1 | c1cc[n+](CCCCC[n+]2ccccc2)cc1 | > 100 µM | > 100 µM | 
2 | c1ccc2c[n+](CCCCCCCC[n+]3ccc4ccccc4c3)ccc2c1 | 11.7 µM | 65.5 µM | 
3 | c1cc[n+](CCCCCC[n+]2ccccc2)cc1 | > 100 µM |  | 
4 | c1ccc2c(c1)ccc[n+]2CCCCCCCCCCCC[n+]1cccc2ccccc21 |  | > 100 µM | 
5 | CN1CCC[C@H]1c1ccc[n+](CCCCCC[n+]2cccc([C@@H]3CCCN3C)c2)c1 | > 100 µM |  | 
6 | c1ccc2c[n+](CCCCCCCCC[n+]3ccc4ccccc4c3)ccc2c1 | 5.95 µM | 7.89 µM | 
7 | c1ccc2c[n+](CCCCCCCCCCC[n+]3ccc4ccccc4c3)ccc2c1 | 5.46 µM |  | 
8 | c1ccc2c(c1)ccc[n+]2CCCCCCCCC[n+]1cccc2ccccc21 | 3.58 µM | 22.5 µM | 
9 | c1cc[n+](CCCCCCCC[n+]2ccccc2)cc1 | > 100 µM | 34.3 µM | 
10 | c1ccc2c(c1)ccc[n+]2CCCCCCCCCCC[n+]1cccc2ccccc21 | 2.58 µM | 37.8 µM | 
11 | CN1CCC[C@H]1c1ccc[n+](CCCCCCCCCCC[n+]2cccc([C@@H]3CCCN3C)c2)c1 | > 100 µM | 0.43 µM | 5.22 µM
12 | CN1CCC[C@H]1c1ccc[n+](CCCCCCCC[n+]2cccc([C@@H]3CCCN3C)c2)c1 | > 100 µM | 1.54 µM | 
13 | c1ccc2c[n+](CCCCCCCCCC[n+]3ccc4ccccc4c3)ccc2c1 | 7.25 µM | > 100 µM | 
14 | c1cc[n+](CCCCCCCCC[n+]2ccccc2)cc1 | > 100 µM |  | 
15 | c1cc[n+](CCCCCCCCCC[n+]2ccccc2)cc1 | > 100 µM |  | 
16 | CN1CCC[C@H]1c1ccc[n+](CCCCCCCCCC[n+]2cccc([C@@H]3CCCN3C)c2)c1 | > 100 µM | 0.33 µM | 3.76 µM

Row | SMILES | Ki [1] | Ki [2] | IC50 (Rattus norvegicus)
17 | COc1cc2c3cc1Oc1cc(ccc1O)C[C@@H]1c4c(cc(OC)c(O)c4Oc4ccc(cc4)C[C@@H]3N(C)CC2)CC[N+]1(C)C | 4.79 µM | 9.72 µM | 
18 | c1ccc2c(c1)ccc[n+]2CCCCCCCC[n+]1cccc2ccccc21 | 2.39 µM | > 100 µM | 
19 | CCCCCCCC[n+]1cccc([C@@H]2CCCN2C)c1 | 23.6 µM |  | 
20 | CN1CCC[C@H]1c1ccc[n+](CCCCCCCCC[n+]2cccc([C@@H]3CCCN3C)c2)c1 | > 100 µM | 5.03 µM | 
21 | c1ccc2c(c1)ccc[n+]2CCCCCCCCCC[n+]1cccc2ccccc21 | 7.81 µM | > 100 µM | 
22 | CN1CCC[C@H]1c1ccc[n+](CCCCCCCCCCCC[n+]2cccc([C@@H]3CCCN3C)c2)c1 | > 100 µM |  | 
23 | c1ccc2c(c1)ccc[n+]2CCCCCC[n+]1cccc2ccccc21 |  | 39.3 µM | 
24 | c1cc[n+](CCCCCCCCCCC[n+]2ccccc2)cc1 | 57 µM | 14 µM | 
25 | Cc1ccc[n+](CCCCCCCCCCC[n+]2cccc(C)c2)c1 | > 100 µM |  | 
26 | Cc1ccc[n+](CCCCCCCCC[n+]2cccc(C)c2)c1 | > 100 µM | 79.9 µM | 
27 | Cc1ccc[n+](CCCCCC[n+]2cccc(C)c2)c1 | > 100 µM | > 100 µM | 
28 | Cc1ccc[n+](CCCCCCCCCCCC[n+]2cccc(C)c2)c1 | > 100 µM | 48.6 µM | 
29 | Cc1ccc[n+](CCCCCCCC[n+]2cccc(C)c2)c1 | > 100 µM | > 100 µM | 
30 | Cc1ccc[n+](CCCCCCCCCC[n+]2cccc(C)c2)c1 | > 100 µM | > 100 µM | 
31 | CCCCCCCCCC[n+]1cccc([C@@H]2CCCN2C)c1 | > 100 µM | 0.064 µM | 
32 | C[N+](C)(C)CCCCCC[N+](C)(C)C [HEXAMETHONIUM CHLORIDE] | > 100 µM | 21.7 µM | 
